Source: ChEMBL document CHEMBL3507680, “University of Dundee, Gates Library screen for HepG2 cell viability”

Assay: Human HepG2 cell viability assay in 384 well format
Assay type: toxicity, cell-based
Parameters: dose 125 nL, time 70.5 hour; concentration not given beside the values
Details: HepG2 cells, read-out: Inhibition

| SMILES | cytotoxicity at 70.5 h [%] |
| --- | --- |
| CC(C)(CNC(=O)COc1cccc(F)c1)C(N)=O | -9.07 |
| CCN(CC)C(=O)Nc1ccc(C(=O)N(C)C)c(C)c1 | 2.13 |
| CC1CCC2(CC1)Nc1ccccc1CO2 (stereo not drawn) | 15.1 |
| O=C(c1ccc(N2CCOCC2)cc1)N1CCCC(n2ccnc2)C1 (stereo not drawn) | 20.8 |
| CNc1nc(CNC(=O)Nc2cccc(Cl)c2OC)cs1 | -3.54 |
| c1ccc(NCc2cccc(OCCN3CCOCC3)c2)nc1 | 6.42 |
| Cc1cncc(C2CCCN(C(=O)c3cccn3C)C2)n1 (stereo not drawn) | -5.17 |
| CC(C)c1ncc2c(n1)CN(Cc1nc3c(F)cccc3[nH]1)CC2 | 21 |
| CC(C)(C)OC(=O)N1CCCN1C(=O)c1cccc2cc[nH]c12 | 3.87 |
| CNc1nc(CNC(=O)Nc2ccc(OC(C)C)cc2F)cs1 | -5.89 |
| Cc1nc(C)n(CC2CN(Cc3noc(C4CC4)n3)CCO2)n1 (stereo not drawn) | -6.68 |
| COc1ccccc1OCC(=O)Nc1ncccc1C | -3.19 |
| CN1CC2(CCCN(Cc3cccc(CCN)c3)C2)OC1=O (stereo not drawn) | 2.55 |
| O=C(c1csc(-c2ncccn2)n1)N1CCN(C2CCCC2)CC1 | -5.27 |
| COc1cncc(N2CCN(Cc3ccco3)CC2)n1 | -12.1 |
| CC(C)Cc1cc(CNC(=O)C2CCCN(Cc3ccco3)C2)no1 (stereo not drawn) | -4.13 |
| CN(CC1CC1)C(=O)Cc1csc(-c2ncccn2)n1 | 0.625 |
| Cc1nc2ccnn2c(C)c1CCC(=O)N1CCN(CCO)CC1 | -9.84 |
| Cc1cc2n(n1)CC(CNC1CCN(Cc3ccccn3)CC1)CN2 (stereo not drawn) | -6.35 |
| NCC1CCC2(CCN(C(=O)c3ccccn3)CC2)CO1 (stereo not drawn) | 2.02 |

| SMILES | cytotoxicity at 70.5 h [%] |
| --- | --- |
| c1cc2nccc(CC3CCCN(C4CCOCC4)CC3)c2cn1 (stereo not drawn) | -1.46 |
| Cc1ccc(OCC(=O)NS(=O)(=O)c2c(C)noc2C)cc1C | 25 |
| COCC(=O)N[C@H]1C[C@@H](Cc2cc(CN3CCCCC3)on2)C1(C)C | 24.1 |
| Fc1cccnc1N1CCCC(c2nccs2)C1 (stereo not drawn) | -5.3 |
| COc1cc(CNCCn2cc(C)cn2)c2c(c1)CC(C)O2 (stereo not drawn) | -8.44 |
| Cc1nnc(C(NS(=O)(=O)c2cc(C)c(F)cc2F)C(C)C)[nH]1 (stereo not drawn) | -6.79 |
| CC(C)(C)NC(=O)c1nn(C2CCS(=O)(=O)C2)c2c1CCCC2 (stereo not drawn) | -18.7 |
| CCn1nccc1CNC(=O)C1CCCC1 | -6.56 |
| O=C(Cn1cc(-n2cccc2)cn1)NCC(F)(F)F | -12.8 |
| c1ccc(CNc2nc(N3CCOCC3)nc3nccnc23)cc1 | -12.1 |
| COc1ccc(N(c2ccc(OC)cc2)c2ccc(C(=O)O)s2)cc1 | -3.85 |
| CC(NCC1CCN(CCO)CC1)c1ccc(Cl)cc1 (stereo not drawn) | 10.5 |
| CC(NC1(CNC(=O)CC(C)(C)C)CCOCC1)c1ccccc1 (stereo not drawn) | -7.83 |
| Nc1ncc(-c2ccc(C(F)(F)F)cc2)c(C2CCCNC2)n1 (stereo not drawn) | 0.61 |
| CN(C)C(Cn1ccnc1-c1ccccc1C(=O)O)c1ccccc1Cl (stereo not drawn) | 10.5 |
| CCOCc1ccccc1NC(=O)NC1CCN(C(=O)OCC)CC1 | -5.57 |
| Cc1nc(C2CCCN(C(=O)c3c(C)nn4cccnc34)C2)no1 (stereo not drawn) | -4.04 |
| Cc1cccc(C)c1OCC(C)Nc1nc(N)nc2c1CCNC2 (stereo not drawn) | -11.5 |
| CCCNC(=O)c1[nH]nc(C2CC2)c1Br | -5.95 |
| CN(CCc1ccccc1)Cc1cc(C(=O)N2CCSCC2)no1 | -3.85 |

| SMILES | cytotoxicity at 70.5 h [%] |
| --- | --- |
| CCc1nc(N)sc1C(=O)N1CCC(c2cc(O)nc(C)n2)CC1 | 20.6 |
| CC(=O)N1CCCC1c1nc(C)c2c(n1)N(Cc1ccccn1)CCC2 (stereo not drawn) | -8.03 |
| Cn1cc(-c2cnc(N3CCOCC3)nc2)cc1C(=O)N1CCOCC1 | -22 |
| Cc1cc(C(=O)N2CCCCC2C)ccc1NCCCO (stereo not drawn) | -17.1 |
| COc1c(CNCCNC(=O)c2ccc(C)cc2)c(C(C)C)nn1C | -8.14 |
| c1cncc(OCC2CN(Cc3ccsc3)Cc3nccn3C2)c1 (stereo not drawn) | 6.26 |
| Cn1cncc1CN1CCC2(CC1)CCN2c1ncccn1 | -2.28 |
| Cc1nc(C)n(CC2CN(CC(=O)Nc3cccnc3)CCO2)n1 (stereo not drawn) | -2.68 |
| COCCNC(=O)[C@H]1CN(Cc2nccs2)C[C@H]2OCC[C@@H]12 | -2.35 |
| Cc1nn2c(N3CCC(O)C3)cc(-c3ccccc3)nc2c1C (stereo not drawn) | -5.83 |
| CC(C)NC(=O)N1CCc2ncnc(-c3ccncc3)c2CC1 | -3.38 |
| CCOC(=O)c1cn(CC(O)c2ccccc2OC)nn1 (stereo not drawn) | 7.58 |
| NC(=O)N1CCC2(CCN(C(=O)c3cccnc3)CC2)C1 | 0.925 |
| O=C(c1cccs1)N1CCc2ncc(Cn3cncn3)n2CC1 | -13.5 |
| Cn1cc(CC(=O)N2CCOC(c3nc(C(C)(C)C)n[nH]3)C2)cn1 (stereo not drawn) | -1.3 |
| Cc1[nH]ccc1C(=O)N1CCCC(c2ccc(C(=O)O)cc2)C1 (stereo not drawn) | -22.6 |
| c1cc(CNCc2ccc(-n3cncn3)nc2)cc(OC2CCCC2)c1 | -6.11 |
| CCc1nc(C)c(-c2nccn2CC2CCCCO2)[nH]1 (stereo not drawn) | -10.5 |
